This data set is described as follows: LC–MS/MS detection of D10-SRP-001 and AM404 in the periaqueductal gray (PAG). The format is in vivo, rats. To be noted: 30 min after IP injection, LC/MS–MS. The method, then:
Next, we sought to define the uptake of SRP-001 in the nociception area of the brain, the midbrain’s periaqueductal (PAG) area[42],[43]. Thirty min following ip-SRP-001 administration (32 mg/kg), the PAG was harvested and analyzed by LC/MS–MS. D10-SRP-001 was used to match the fragmentation pattern while monitoring analytes.
Deuterated compound D10-SRP-001 was synthesized by Olon Ricerca Bioscience (Concord, OH), and purity was determined to be > 99.9% by HPLC. This was used as pure analytical standard for detection of SRP-001 using an LC–MS/MS method. Similarly, pure analytical standard of AM404 (10 ng/mL) obtained from Cayman Chemical (Ann Arbor, MI) was used to characterize the full fragmentation pattern of AM404. […] Thirty min post-injection, the animals were sacrificed (same as in the CFA/von Frey model), their brains harvested, and the midbrain periaqueductal gray (PAG) region excised. SRP-001 or AM404 were extracted from the PAG using a liquid–liquid extraction method using 1:1 MeOH:H2O for LC–MS/MS and were loaded onto a liquid chromatography-tandem mass spectrophotometer for analysis. The mass spectrophotometer was operated in multiple reaction monitoring (MRM) mode using positive ion electrospray. D10-SRP-001 was detected by monitoring the m/z transition 416 → 186. AM404 was detected by monitoring the m/z transition 396 → 287.

For `[2H]C([2H])([2H])C([2H])([2H])N(C(=O)c1ccccc1S(=O)(=O)NCC(=O)Nc1ccc(O)cc1)C([2H])([2H])C([2H])([2H])[2H]` [D10-SRP-001], the “Detection in rat brain” value is reported as “detected in the brain”.
